Assay results: patent US7446094B2, “Cytotoxic depsipeptides” (Instituto Biomar S.A., priority 2003, dated 2008)

Assays:
[1] = tested on: Hela S3 cells; details: from JP 11180997; cited from earlier work
[2] = tested on: human breast tumour (MX-1 cell line) xenografts; assay: Human breast tumour xenograft, net tumour growth; assay type: in vivo, female athymic mice; design: key to Net Tumour Growth ± S.E.M.: †: High mortality prevented meaningful statistical analysis; details: for Net Tumour Growth ± S.E.M.: MX-1 xenograft
From the text: (§1) At different times, three human tumour cell lines MX-1 (breast), HT-29 (colon), and LX-1 (non-small cell lung), respectively, were implanted subcutaneously into separate groups of recipient female athymic mice as a small seedling of approximately 2-3 mm^3. Each tumour type was then allowed to grow inside the animal to reach a group mean size of 100±15 mm^3, at which time tumour-bearing mice were randomized into groups (Staging Day). The Staging Day also coincided with Day 0 for drug dosing.
(§2) The test article was administered as a single intravenous (iv) bolus injection (i.e., QD×1) on the Staging Day (Day 0).
(§3) Tumour burden was determined for all animals throughout the study using a caliper, and the frequency was at least twice per week.
(§4) Protocols and criteria for drug activity were derived from those established by the National Cancer Institute for tumour systems similar to those used in these studies (NIH Publication No. 84-2635, In vivo cancer models 1976-1982). Statistical analysis of tumour volumes for each group of drug treated animals was performed according to the Mann Whitney nonparametric test based on comparisons to the vehicle control cohort within the same experiment.
(§5) Tumour lengths (L) and widths (W) were measured in millimeters (mm) using calipers, recorded, and tumour volume was calculated by the formula: Volume (mm^3)=L×W^2×0.5. Individual values were determined for each tumour-bearing athymic- mouse and specified day of measurement (day D). On the tumour Staging Day (Day 0), the tumour volume of a treated animal (T01) was subtracted from the corresponding tumour volume on each observation day (TD1). This provided the change (Δ) in tumour volume for the said treated athymic mouse (ΔT1=TD1−T01). The change in tumour volumes for each member of the control cohort (ΔC) was calculated in a similar fashion as above.
(§6) At randomization (Day 0) the average volume of the tumour mass was 100±15 mm^3 and the “net tumour growth” is really a difference between the size of the tumour on Day X and that on Day 0. The parameter S.E.M. is commonly used in statistics and stands for standard error of the mean in a distribution of N (size) experimental values.

[3] = Maximum tolerated dose in mice; details: CD-1, mouse, in vivo
[4] = tested on: human colon tumour (HT-29 cell line) xenografts; assay: Human colon tumour xenograft, net tumour growth; assay type: in vivo, female athymic mice; details: for Net Tumour Growth ± S.E.M.: HT-29 xenograft, single iv dose 0.5 mg/kg
From the text: as §1, §2, §3, §4, §5, §6

[5] = tested on: human non-small cell lung tumour (LX-1 cell line) xenografts; assay: Human non-small cell lung tumour xenograft, net tumour growth; assay type: in vivo, female athymic mice; details: for Net Tumour Growth ± S.E.M.: LX-1 xenograft
From the text: as §1, §2, §3, §4, §5, §6

[6] = tested on: SW-579; assay: MTS tetrazolium cytotoxicity assay; assay type: cell-based; details: Homo sapiens, SW579, 72 h, read-out: Cytotoxic activity (IC50)
From the text: (§7) The finality of these assays is to interrupt the growth of an “in vitro” tumour cell culture by means a continued exhibition of the cells to the sample to be testing. The following human cell lines were used:
(§8) Tetrazolium Assay MTS is based on metabolic reduction of MTS to solubilized formazan crystals by the metabolically active mitochondria of living cells. For this reason, the methodology includes counting of the cell lines based on viability staining to ensure that cell concentrations are corrected to allow for 100% living cells into each well in lieu of Coulter counting or estimated dilutions based on standard growth curves.
(§9) Medium containing drug was removed at the end of the treatment and culture plates rinsed one time with PBS. Afterward, cells were incubated in 200 μl of drug-free medium until 72 hours. After appropriate incubation time 25 μl of MTS+PMS solution was added to each microtiter well and incubated for 4 hours at 37° C. Plates were then removed from the incubator and placed on plate shaker for 5 minutes (covered for protection from light). Optical densities were read at 490 nm on spectrophotometer plate reader. Data was analyzed using Softmax.
(§10) Data is presented as IC50 potencies calculated from 3rd order polynomial regression curves using Microsoft Excel and then manually interpolated.

[7] = tested on: H9; assay: MTS tetrazolium cytotoxicity assay; assay type: cell-based; details: Homo sapiens, H9, 72 h, read-out: Cytotoxic activity (IC50)
From the text: as §7, §8, §9, §10

[8] = tested on: SK-OV-3; assay: MTS tetrazolium cytotoxicity assay; assay type: cell-based; details: Homo sapiens, SK-OV-3, 72 h, read-out: Cytotoxic activity (IC50)
From the text: as §7, §8, §9, §10

[9] = tested on: HT-29; assay: MTS tetrazolium cytotoxicity assay; assay type: cell-based; details: Homo sapiens, HT-29, 72 h, read-out: Cytotoxic activity (IC50)
From the text: as §7, §8, §9, §10

[10] = tested on: K562; assay: MTS tetrazolium cytotoxicity assay; assay type: cell-based; details: Homo sapiens, K562, 72 h, read-out: Cytotoxic activity (IC50)
From the text: as §7, §8, §9, §10

[11] = tested on: OSA-FH; assay: MTS tetrazolium cytotoxicity assay; assay type: cell-based; details: Homo sapiens, 72 h, read-out: Cytotoxic activity (IC50)
From the text: as §7, §8, §9, §10

[12] = tested on: BT-474; assay: MTS tetrazolium cytotoxicity assay; assay type: cell-based; details: Homo sapiens, BT-474, 72 h, read-out: Cytotoxic activity (IC50)
From the text: as §7, §8, §9, §10

[13] = tested on: 5637; assay: MTS tetrazolium cytotoxicity assay; assay type: cell-based; details: Homo sapiens, 72 h, read-out: Cytotoxic activity (IC50)
From the text: as §7, §8, §9, §10

[14] = tested on: 786-O; assay: MTS tetrazolium cytotoxicity assay; assay type: cell-based; details: Homo sapiens, 786-0, 72 h, read-out: Cytotoxic activity (IC50)
From the text: as §7, §8, §9, §10

[15] = tested on: MX-1; assay: MTS tetrazolium cytotoxicity assay; assay type: cell-based; details: Homo sapiens, MX1, 72 h, read-out: Cytotoxic activity (IC50)
From the text: as §7, §8, §9, §10

[16] = tested on: MC116; assay: MTS tetrazolium cytotoxicity assay; assay type: cell-based; details: Homo sapiens, MC116, 72 h, read-out: Cytotoxic activity (IC50)
From the text: as §7, §8, §9, §10

[17] = tested on: SK-N-MC; assay: MTS tetrazolium cytotoxicity assay; assay type: cell-based; details: Homo sapiens, 72 h, read-out: Cytotoxic activity (IC50)
From the text: as §7, §8, §9, §10

[18] = tested on: PC-3; assay: MTS tetrazolium cytotoxicity assay; assay type: cell-based; details: Homo sapiens, PC-3, 72 h, read-out: Cytotoxic activity (IC50)
From the text: as §7, §8, §9, §10

[19] = tested on: Y-79; assay: MTS tetrazolium cytotoxicity assay; assay type: cell-based; details: Homo sapiens, Y79, 72 h, read-out: Cytotoxic activity (IC50)
From the text: as §7, §8, §9, §10

[20] = tested on: A549; assay: MTS tetrazolium cytotoxicity assay; assay type: cell-based; details: Homo sapiens, A549, 72 h, read-out: Cytotoxic activity (IC50)
From the text: as §7, §8, §9, §10

[21] = tested on: DU-145; assay: MTS tetrazolium cytotoxicity assay; assay type: cell-based; details: Homo sapiens, DU-145, 72 h, read-out: Cytotoxic activity (IC50)
From the text: as §7, §8, §9, §10

[22] = tested on: NCI-H187; assay: MTS tetrazolium cytotoxicity assay; assay type: cell-based; details: Homo sapiens, NCI-H187, 72 h, read-out: Cytotoxic activity (IC50)
From the text: as §7, §8, §9, §10

[23] = tested on: CHSA; assay: MTS tetrazolium cytotoxicity assay; assay type: cell-based; details: Homo sapiens, 72 h, read-out: Cytotoxic activity (IC50)
From the text: as §7, §8, §9, §10

[24] = tested on: SW 694; assay: MTS tetrazolium cytotoxicity assay; assay type: cell-based; details: Homo sapiens, 72 h, read-out: Cytotoxic activity (IC50)
From the text: as §7, §8, §9, §10

[25] = tested on: TT; assay: MTS tetrazolium cytotoxicity assay; assay type: cell-based; details: Homo sapiens, 72 h, read-out: Cytotoxic activity (IC50)
From the text: as §7, §8, §9, §10

[26] = tested on: Mel-28; assay: MTS tetrazolium cytotoxicity assay; assay type: cell-based; details: Homo sapiens, SK-MEL-28, 72 h, read-out: Cytotoxic activity (IC50)
From the text: as §7, §8, §9, §10

[27] = tested on: FADU; assay: MTS tetrazolium cytotoxicity assay; assay type: cell-based; details: Homo sapiens, 72 h, read-out: Cytotoxic activity (IC50)
From the text: as §7, §8, §9, §10

[28] = tested on: Hs746t; assay: MTS tetrazolium cytotoxicity assay; assay type: cell-based; details: Homo sapiens, 72 h, read-out: Cytotoxic activity (IC50)
From the text: as §7, §8, §9, §10

[29] = tested on: HL-60; assay: MTS tetrazolium cytotoxicity assay; assay type: cell-based; details: Homo sapiens, HL-60, 72 h, read-out: Cytotoxic activity (IC50)
From the text: as §7, §8, §9, §10

[30] = tested on: PANC-1; assay: MTS tetrazolium cytotoxicity assay; assay type: cell-based; details: Homo sapiens, PANC-1, 72 h, read-out: Cytotoxic activity (IC50)
From the text: as §7, §8, §9, §10

[31] = tested on: SK-HEP-1; assay: MTS tetrazolium cytotoxicity assay; assay type: cell-based; details: Homo sapiens, SK-HEP1, 72 h, read-out: Cytotoxic activity (IC50)
From the text: as §7, §8, §9, §10

[32] = tested on: LNCAP; assay: MTS tetrazolium cytotoxicity assay; assay type: cell-based; details: Homo sapiens, 72 h, read-out: Cytotoxic activity (IC50)
From the text: as §7, §8, §9, §10

[33] = single iv dose 1.0 mg/kg, DAY 3
[34] = single iv dose 1.0 mg/kg, DAY 6
[35] = single iv dose 1.0 mg/kg, DAY 10
[36] = single iv dose 1.5 mg/kg, DAY 3
[37] = single iv dose 1.5 mg/kg, DAY 6
[38] = single iv dose 1.5 mg/kg, DAY 10

In the case of CCC(C)C1NC(=O)c2nc(oc2-c2ccccc2)-c2csc(n2)-c2coc(n2)-c2coc(n2)-c2coc(n2)CNC(=O)C(C(C)C)NC1=O (centres unmarked), the IC50 [1] is given as 0.014 µM.

For C=C1NC(=O)C(C(C)C)NC(=O)C(C(C)CC)NC(=O)c2nc(oc2-c2ccccc2)-c2coc(n2)-c2csc(n2)-c2coc(n2)-c2coc1n2 (centres unmarked) [IB-01211], the “Net Tumour Growth ± S.E.M.” value [2, 33] was 5 ± 3 mm^3, the “Net Tumour Growth ± S.E.M.” value [2, 34] was 113 ± 62 mm^3 and the “Net Tumour Growth ± S.E.M.” value [2, 35] was 450 ± 137 mm^3. The “Net Tumour Growth ± S.E.M.” value [2, 36] was “†”, the “Net Tumour Growth ± S.E.M.” value [2, 37] was “†” and the “Net Tumour Growth ± S.E.M.” value [2, 38] was “†”. The “antitumour effect in vivo” value ([2]; breast tumour, dose of 0.29 MTD) was “trend to significance”, the MTD [3] was 3.5 mg/kg and the “Net Tumour Growth ± S.E.M.” value ([4]; DAY 1) was 26 ± 11 mm^3. The “Net Tumour Growth ± S.E.M.” value ([4]; DAY 4) was 53 ± 28 mm^3, the “Net Tumour Growth ± S.E.M.” value ([4]; DAY 8) was 162 ± 34 mm^3 and the “antitumour effect in vivo” value ([4]; colon tumour, dose of 0.14 MTD) was “not against colon tumour”. For the same compound, the “Net Tumour Growth ± S.E.M.” value [5, 33] was 68 ± 29 mm^3, the “Net Tumour Growth ± S.E.M.” value [5, 34] was 234 ± 11 mm^3 and the “Net Tumour Growth ± S.E.M.” value [5, 35] was 561 ± 60 mm^3. For the same compound, the “Net Tumour Growth ± S.E.M.” value [5, 36] was 11 ± 19 mm^3, the “Net Tumour Growth ± S.E.M.” value [5, 37] was 121 ± 51 mm^3 and the “Net Tumour Growth ± S.E.M.” value [5, 38] was 309 ± 71 mm^3. For the same compound, the “antitumour effect in vivo” value ([5]; human non-small cell lung tumour, dose of 0.43 MTD) was “significant antitumour effect”, the IC50 [6] was 0.452 µM and the IC50 [7] was 0.184 µM. For the same compound, the IC50 [8] was 0.946 µM, the IC50 [9] was 0.817 µM and the IC50 [10] was 0.636 µM. The IC50 [11] was 0.72 µM, the IC50 [12] was 0.537 µM and the IC50 [13] was 0.339 µM. The IC50 [14] was 0.692 µM, the IC50 [15] was 0.862 µM and the IC50 [16] was 3.39 µM. It also gave an IC50 [17] of 0.537 µM, an IC50 [18] of 0.621 µM and an IC50 [19] of 0.0932 µM. It also gave an IC50 [20] of 0.918 µM, an IC50 [21] of 0.48 µM and an IC50 [22] of 0.0297 µM. For the same compound, the IC50 [23] was 0.353 µM, the IC50 [24] was 0.72 µM and the IC50 [25] was 4.38 µM. It also gave an IC50 [26] of 0.508 µM, an IC50 [27] of 0.664 µM and an IC50 [28] of 0.692 µM. The IC50 [29] was 0.141 µM, the IC50 [30] was 0.424 µM and the IC50 [31] was 0.664 µM. It also gave an IC50 [32] of 0.65 µM.
